Legend:
[1] = target: T1, CnAcs1 (acetyl CoA synthetase) (Cryptococcus neoformans, UniProt J9VFT1); assay: coupled pyrophosphate-release enzyme assay; format: biochemical
T1 construct: gene CNAG_00797; His-tagged recombinant CnAcs1 expressed in E. coli
T1 sequence (J9VFT1 1-680): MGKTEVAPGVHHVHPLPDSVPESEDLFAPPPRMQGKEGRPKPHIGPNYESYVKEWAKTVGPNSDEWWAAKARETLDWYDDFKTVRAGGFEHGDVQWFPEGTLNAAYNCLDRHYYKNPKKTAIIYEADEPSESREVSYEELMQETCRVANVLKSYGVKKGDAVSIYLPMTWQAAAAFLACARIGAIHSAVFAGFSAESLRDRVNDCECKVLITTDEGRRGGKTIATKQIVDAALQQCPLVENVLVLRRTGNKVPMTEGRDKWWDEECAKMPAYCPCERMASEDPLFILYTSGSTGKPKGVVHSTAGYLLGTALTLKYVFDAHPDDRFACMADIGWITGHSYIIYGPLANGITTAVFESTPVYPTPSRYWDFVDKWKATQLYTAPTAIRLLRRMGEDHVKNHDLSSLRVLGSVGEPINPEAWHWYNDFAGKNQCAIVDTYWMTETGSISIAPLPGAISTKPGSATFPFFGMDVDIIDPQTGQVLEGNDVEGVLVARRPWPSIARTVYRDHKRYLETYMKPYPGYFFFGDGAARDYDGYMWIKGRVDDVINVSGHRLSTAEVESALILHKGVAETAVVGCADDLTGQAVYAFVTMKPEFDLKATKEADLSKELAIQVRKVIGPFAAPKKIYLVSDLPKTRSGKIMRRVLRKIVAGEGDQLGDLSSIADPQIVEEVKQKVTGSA

[2] = target: T1, CnAcs1 (acetyl CoA synthetase); assay: X-ray co-crystal structure; format: biochemical; conditions: cited from earlier work
Text: X-ray co-crystal structure on CnAcs1 (acetyl CoA synthetase) | we obtained an X-ray crystal structure of CnAcs1 bound to the cyclopropyl-AMP ester

[3] = target: Cryptococcus neoformans Acs1 (acetyl CoA synthetase) (C. neoformans); assay: crystal structure; co-crystal of CnAcs1 (10 mg/mL in 20 mM NaCl, 20 mM Tris pH 8.5, 1 mM TCEP) with 2 mM isoxazole 1; sitting drop vapor diffusion at 18 °C; PDB 9CD8
[4] = target: Cryptococcus neoformans Acs1 (acetyl CoA synthetase) (C. neoformans); assay: mass photometry; single molecule, in solution, to low concentrations; with and without supra-inhibitory isoxazole 1 (apparent size unchanged)

Question: With O=C(NNC(=O)c1csnn1)c1ccc(Cl)cc1 [MMV084978] as the compound, how does the IC50 [1] read?
Answer: Its IC50 is 2.8 µM.

Question: Which IC50 [2] does the source give for Nc1ncnc2c1ncn2[C@@H]1O[C@H](COP(=O)(O)OC2CC2)[C@@H](O)[C@H]1O [cyclopropyl-AMP] here?
Answer: The IC50 was 9 µM.

Question: What does the source list for “Cryptococcus neoformans Acs1 (acetyl CoA synthetase) (enzyme)”?
Answer: stoichiometry N [3]: 3; stoichiometry N [4]: 3

Reference: paper PMC11722533, “Discovery and mechanism of a highly selective, antifungal acetyl CoA synthetase inhibitor” (Research Square, 2025)
